Data: PubChem BioAssay AID1645864 (Buhrlage Lab, Dana-Farber Cancer Institute and Novartis …, 2021)
The source made the active and inactive calls.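 How the source made its calls: active means maximal inhibition of USP17 at or above 30% in the confirmation dose-response, a value not among the printed readouts; inactive means the rest.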

Target: Ubiquitin carboxyl-terminal hydrolase 17-like protein 5 (Homo sapiens) (UniProt A8MUK1)
Assay: ubiquitin-specific protease 17 DUB inhibitors, concentration-effect assay, cell-free, verification of initial screening actives (AID 1645864)
Details: purified USP17, ubiquitin-rhodamine cleavage fluorescence, 3 h

Chain of Ubiquitin carboxyl-terminal hydrolase 17-like protein 5 (Homo sapiens) (A8MUK1 whole entry, looked up): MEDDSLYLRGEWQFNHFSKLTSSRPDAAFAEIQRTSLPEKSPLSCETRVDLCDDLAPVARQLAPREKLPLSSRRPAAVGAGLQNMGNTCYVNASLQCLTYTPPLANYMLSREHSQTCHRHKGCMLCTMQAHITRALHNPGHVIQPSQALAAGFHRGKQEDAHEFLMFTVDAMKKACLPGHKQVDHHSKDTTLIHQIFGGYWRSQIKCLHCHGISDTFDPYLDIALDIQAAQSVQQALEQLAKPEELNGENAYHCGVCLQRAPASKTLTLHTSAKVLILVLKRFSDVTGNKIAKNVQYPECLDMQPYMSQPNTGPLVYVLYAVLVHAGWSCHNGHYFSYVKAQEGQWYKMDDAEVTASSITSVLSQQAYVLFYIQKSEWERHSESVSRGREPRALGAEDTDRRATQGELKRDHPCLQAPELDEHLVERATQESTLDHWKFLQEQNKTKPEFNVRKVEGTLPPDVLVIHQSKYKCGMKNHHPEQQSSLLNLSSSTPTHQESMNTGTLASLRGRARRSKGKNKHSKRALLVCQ

| IC50 | Compound |
| --- | --- |
| 27.2 µM | Cc1ccc2nc(CNC(=O)c3ccccc3-c3nc(-c4ccc(F)cc4)no3)[nH]c2c1 |
| 20.2 µM | CNS(=O)(=O)c1ccc(CNC(=O)c2cc(-c3ccc(C)cc3)no2)cc1 |
| > 50 µM (inactive) | O=C(NCCc1ccccc1)c1nnn(Cc2cccc(Cl)c2)c1-n1cccc1 |
| > 50 µM (inactive) | O=C(Nc1ccccc1)c1nc2c(s1)CCN(C(=O)c1ccccc1)CC2 |
| 49.7 µM | O=C(NC(Cc1ccccc1)c1nc2ccccc2[nH]1)C1CC1 (stereo not drawn) |
| > 50 µM (inactive) | Oc1ccc(-c2nc3cnccn3c2NCCc2ccccc2)c(O)c1 |
| > 50 µM (inactive) | Cc1noc(-c2cccn(Cc3cccc(C(F)(F)F)c3)c2=O)n1 |
| 29.2 µM | COc1ccccc1CNC(=O)CCCn1c(=O)c2ccccc2n(CC(=O)N2CCN(c3ccccc3)CC2)c1=O |
| > 50 µM (inactive) | CCCNC(=O)c1ccn(-c2ccc3ccc(-c4cnn(C)c4)cn23)n1 |
| 5.06 µM | CCN(c1ccc(NC(=O)CSc2nnc(-c3ccccc3)n2-c2ccc(OC)c(OC)c2)cc1)C(C)C |
| 33.1 µM | Cn1c(=O)[nH]c(=O)c2c1nc1n(CCc3ccccc3)c(-c3ccccc3)cn21 |
| 4.48 µM | COc1ccc(S(=O)(=O)N2CCc3ccccc32)cc1C(=O)Nc1ccc2[nH]c(=O)[nH]c2c1 |
| > 50 µM (inactive) | Cc1ccc(C)c(-c2cc3c(=O)n(Cc4noc(CN5CCCCC5)n4)ccn3n2)c1 |
| 0.323 µM | O=C(Nc1ccc(Cl)cc1F)c1cc(-c2ccccn2)n[nH]1 |
| > 50 µM (inactive) | CCc1nc(-c2cccc(NC(=O)c3ccc(C#N)cc3F)c2)no1 |
| 38.6 µM | O=C(NCc1ccc(-c2nc3cnccc3o2)cc1)c1ccccc1Br |
| 2.75 µM | O=c1c2ccccc2c(-c2nc(-c3ccncc3)no2)cn1-c1ccccc1 |
| > 50 µM (inactive) | Cc1cc(O)c(=O)cc2c1C[C@H]1CC(C)(C)/C=C/C[C@@]3(C)Oc4cc(=O)c(O)cc(C)c4C[C@@H]3C[C@H](O)[C@]1(C)O2 |
| 2.98 µM | COc1ccc(CCn2cnc3c([nH]c4ccccc43)c2=O)cc1 |
| 12.6 µM | Cc1cc(N2CCN(c3ncccn3)CC2)nc2ccc(NC(=O)/C=C/c3ccccc3Cl)cc12 |
| 3.43 µM | O=C(Cn1cnc2c(cnn2-c2ccc(Cl)cc2)c1=O)NCc1ccccc1Cl |
| > 50 µM (inactive) | CCc1nc(-c2cc(C(=O)N3CCOCC3)c3ccccn23)cs1 |
| 18.5 µM | COc1ccc(C(=O)NCCc2nnc3ccc(SCC(=O)NCc4ccc(F)cc4)nn23)cc1 |
| 37.5 µM | O=C(NCc1ccc(Br)cc1)c1ccc(-c2cccnc2)nc1 |

| IC50 | Compound |
| --- | --- |
| 38.3 µM | O=C1CC(C(=O)Nc2ccc(F)cc2)n2nc(SCc3ccccc3)nc2N1 (stereo not drawn) |
| > 50 µM (inactive) | COc1cccc(C(=O)Nc2ccc(-n3cnnn3)cc2)c1 |
| 1.9 µM | COc1cc(NC(=O)Cn2nc(-c3ccc(F)cc3)ccc2=O)ccc1-n1cnnn1 |
| 4.57 µM | CSc1ncccc1C(=O)NC1(O)C(=O)c2ccccc2C1=O |
| 2.5 µM | Cc1ccc(CNC(=O)CCCn2c(=O)c3sccc3n(CC(=O)OCc3ccccc3)c2=O)cc1 |
| 4.09 µM | COc1ccccc1NS(=O)(=O)c1cccc(NC(=O)CCc2nc3ccccc3s2)c1 |
| > 50 µM (inactive) | COc1ccc(NC(=O)c2nnn(-c3ccccc3F)c2C)cc1OC |
| 25.9 µM | O=C(COC(=O)c1n[nH]c2ccccc12)Nc1ccc(N2CCCCC2)cc1 |
| > 50 µM (inactive) | Nc1c(-c2ccc(Cl)cc2)cnc2nc(Sc3ncc(C(F)(F)F)cc3Cl)nn12 |
| 1.87 µM | O=c1c2cnc(N3CCCCC3)nc2ccn1CCc1ccccc1 |
| 45.1 µM | O=C(Cn1nc2ccc(C(=O)NCc3ccccc3)cn2c1=O)Nc1ccc2c(c1)OCO2 |
| 34.4 µM | CCn1c(SCC(=O)N2c3ccccc3CC2C)nnc1-c1ccc2c(c1)OCCO2 (stereo not drawn) |
| 29.8 µM | COc1ccc(CNC(=O)c2ccccc2N2C(=O)N3CCc4c([nH]c5ccccc45)[C@@]3(C)C2=O)cc1 |
| > 50 µM (inactive) | O=C(Nc1ccc(F)c(Cl)c1)c1ccc(N2CCCCS2(=O)=O)cc1Cl |
| > 50 µM (inactive) | COC(=O)c1cc(C)sc1NC(=O)c1cccc(OC)c1OC |
| 3.1 µM | CCCC[C@@H](C)/C=C(C)/C=C(\C)C(=O)NC1=C[C@](O)(/C=C/C=C/C=C/C(=O)NC2=C(O)CCC2=O)[C@@H]2O[C@@H]2C1=O |
| 4.19 µM | c1csc(-c2nc(Nc3ccc4c(c3)CCC4)c3ccccc3n2)c1 |
| > 50 µM (inactive) | Cn1nc(-c2nc(-c3ccccc3)no2)c2c1CCN(C(=O)C1CC1)C2 |
| 35.5 µM | O=C(CNc1nc(Nc2ccccc2F)nc(Nc2ccccc2F)n1)Nc1ccccc1 |
| 5.08 µM | COC(=O)c1ccc2c(=O)n(CCCCCC(=O)NCCc3ccc(S(N)(=O)=O)cc3)c(=O)[nH]c2c1 |
| > 50 µM (inactive) | O=C(C1CCCN(S(=O)(=O)N2CCCCCC2)C1)N1CCN(c2ccccc2)CC1 (stereo not drawn) |
| 35.2 µM | O=C(COc1ncnc2ccccc12)Nc1ccc2c(c1)OC1(CCCC1)O2 |
| 7.41 µM | O=C(COc1ccc(Cl)cc1Cl)Nc1ccc2[nH]c(=O)[nH]c2c1 |
| > 50 µM (inactive) | CC(C)N1CC2CN(Cc3ccc(Cl)cc3)CCN2Cc2ccccc21 (stereo not drawn) |

| IC50 | Compound |
| --- | --- |
| 26.8 µM | COCCNC(=O)c1ccc(-c2ccc(N3CCCCC3)nc2)cc1 |
| > 50 µM (inactive) | CCC(C)Oc1cccc(C(=O)Nc2ccc(CN3CCOCC3)cc2)c1 (stereo not drawn) |
| > 50 µM (inactive) | O=C(O)COc1ccccc1/C=C1\CCc2c1nc1ccccc1c2C(=O)O |
| 13.9 µM | O=C(CN1C(=O)C2CCCC2=Nc2ccccc21)Nc1cc(F)ccc1F (stereo not drawn) |
| > 50 µM (inactive) | Nc1nonc1C(=O)NCCNCc1cccc(OCc2ccc(Cl)cc2)c1 |
| 31 µM | O=C(Nc1ccc(N2CCOCC2)cc1)c1cc(=O)[nH]c2ccccc12 |
| 24.6 µM | COc1ccc(OC)c(C2CC(=O)Nc3n[nH]c(-c4ccccc4)c32)c1 (stereo not drawn) |
| 28.2 µM | COc1cccc(NC(=O)C2C3C=CC4(O3)C2C(=O)N(CCc2ccccc2Cl)C4C(=O)NC2CCCCC2)c1 (stereo not drawn) |
| 29.7 µM | O=C(CCCC(=O)c1ccccc1)Nc1ccc(F)cc1 |
| > 50 µM (inactive) | CN=C(N)NCCC/C=C/CCCC(C)CC(C)C1OC(=O)/C=C/C(C)C(O)CC(O)C(C)C(O)CCC(C)C(O)CC2(O)OC(CC(OC(=O)CC(=O)O)CC(O)CC(O)C(C)C(O)/C=C/C1C)CC(O)C2O (stereo not drawn) |
| > 50 µM (inactive) | CC(c1ccccc1)c1nc(-c2ccc(=O)[nH]c2)no1 (stereo not drawn) |
| > 50 µM (inactive) | Cc1ccc(Cn2nnc(-c3ccccc3Cl)n2)cc1 |
| 4.34 µM | O=C(COc1ccc(F)cc1)Nc1cc(F)c2nc(N3CCOCC3)ccc2c1 |
| > 50 µM (inactive) | CCN(CC(=O)Nc1cc(C)on1)c1cccc2ccccc12 |
| 5.95 µM | CC(C)CC(=O)Nc1cc(F)c2nc(N3CCOCC3)ccc2c1 |
| 14.5 µM | CCCC(=O)c1c[nH]c(C(=O)NCc2ccc(F)cc2)c1 |
| 4.4 µM | CCC(=O)N1c2ccccc2NC2=C(C(=O)CC(c3ccccc3OCc3ccccc3)C2)C1c1ccccc1 (stereo not drawn) |
| > 50 µM (inactive) | COc1ccc(C(=O)Nc2ccc3c(c2)Sc2ncccc2C(=O)N3C)cn1 |
| 6.05 µM | O=C(Nc1cccc(Cl)c1)c1ncn2c1CNS(=O)(=O)c1ccccc1-2 |
| 0.567 µM | COc1ccccc1-c1nc2c3c(C)c(C)n(-c4ccc(Br)cn4)c3ncn2n1 |
| > 50 µM (inactive) | CCOc1ccccc1NC(=O)COc1cc(OC)ccc1C(=O)c1ccccc1 |
| 36.4 µM | COc1cccc2c1C(=O)c1ccc3c(c1C2=O)C(=O)CC(C)(O)C3 (stereo not drawn) |
| 36.9 µM | COc1ccc(-c2nc(CNC(=O)COc3ccc(C)cc3)cs2)cc1 |
| 12 µM | O=C(CSc1nnc2n1CCCCC2)Nc1ccc2[nH]c(=O)[nH]c2c1 |

| IC50 | Compound |
| --- | --- |
| > 50 µM (inactive) | COc1cccc(NC(=O)C2CCC(CNS(=O)(=O)c3ccc4c(c3)C(C)(C)C(=O)N4C)CC2)c1 (stereo not drawn) |
| 4.93 µM | CCc1cccc(CC)c1NC(=O)COC(=O)c1cc2cccc(OC)c2oc1=O |
| 18.9 µM | COc1ccc(C)cc1NC(=O)C1CC(=O)Nc2nc(SCc3ccccc3)nn21 (stereo not drawn) |
| > 50 µM (inactive) | COc1ccc(NC(=O)c2ccc(Nc3nnc(C)c4ccccc34)cc2)cc1 |
| 20.6 µM | COC(=O)c1sc2ccccc2c1NC(=O)c1ccc(Br)s1 |
| 3 µM | Cc1c(-c2nn3c(-c4ccco4)nnc3s2)cccc1[N+](=O)[O-] |
| > 50 µM (inactive) | CC1=C2C(=NCCN1)C(=O)N(c1ccccc1)C2c1cccnc1 (stereo not drawn) |
| 3.5 µM | O=C(Cn1cc(C(=O)C(F)(F)F)c2ccccc21)N1CCc2ccccc21 |
| > 50 µM (inactive) | COc1ccc(NC(=O)c2nnn(-c3ccccc3)c2C)cc1OC |
| > 50 µM (inactive) | O=C(NCc1ccccc1Cl)c1ccc2cn[nH]c2c1 |
| 32.3 µM | Cc1nc(N2CCCC2)ncc1C(=O)Nc1ccc(F)c(F)c1 |
| 3.57 µM | CC(=O)Nc1cc(-c2cccc(O)c2)cn2c(-c3cnn(C)c3)cnc12 |
| 48.1 µM | Cc1nc(-c2ccc(C(=O)NCc3ccc(F)cc3)cc2)cs1 |
| > 50 µM (inactive) | CN1CC2CN(C(=O)Nc3cccnc3)CCN2Cc2ccccc21 (stereo not drawn) |
| > 50 µM (inactive) | COc1ccc(/C=C/C(=O)N2CCc3ccccc32)cc1S(=O)(=O)N1CCOCC1 |
| > 50 µM (inactive) | C/C1=C\CCC(C)C(O)CC(O)C(C)C(O)CCC(C)C(O)CC2(O)OC(CC(OC(=O)CC(=O)O)CC(O)CC(O)CC(O)C(C)C(O)/C=C/C(C)C(C(C)CCCCCCCCN=C(N)N)OC1=O)CC(O)C2O (stereo not drawn) |
| > 50 µM (inactive) | Cc1cc(C)n(-c2cccc(C(=O)Nc3ccc4c(c3)CCN4S(C)(=O)=O)c2)n1 |
| > 50 µM (inactive) | O=C1COc2ccccc2N1Cc1noc(-c2ccccc2)n1 |
| > 50 µM (inactive) | Fc1ccc(Cn2ccc(-c3cnc(-c4ccccc4)s3)n2)cc1 |
| 38.4 µM | Cc1cc(C(=O)N2CC(C(=O)Nc3cc(C(F)(F)F)ccc3Cl)C2)no1 |
| 1.98 µM | COc1ccc(NC(=O)Cn2cc(C(=O)c3ccc(C)cc3)c(=O)c3ccccc32)cc1 |
| > 50 µM (inactive) | Cc1ccc2nc(CCc3ccc(NS(=O)(=O)c4cccc(Cl)c4C)cc3)[nH]c2c1 |
| 18.2 µM | Cc1cc(C)cc(N(CCC(=O)Nc2ccc(N3CCOCC3)cc2)S(=O)(=O)c2ccc(Cl)cc2)c1 |

| Compound | IC50 |
| --- | --- |
| CCC(CC)n1[nH]c(=O)c2c1NC(=O)CSC2c1ccc2c(c1)OCO2 (stereo not drawn) | 18.5 µM |
| COc1ccc(OC)c(-c2c(C#N)c(C)nc3c2N2CCC3CC2)c1 | 6.92 µM |
| CC1(C)CC(n2[nH]c(=O)c3c2NC(=O)CSC3c2ccc(OCc3ccccc3)cc2)CCO1 (stereo not drawn) | 21 µM |
